Measured values as given in publication PMC9913752, “Proof-of-Concept Study of an Alpha-Fetoprotein-Derived Peptide for the Management of Canine Mammary Cancer” (Animals : an Open Access Journal from MDPI, 2023).
Where a SMILES comes first, the peptide text is derived from it. [ ]: non-standard residue; d: D form. Hyp = O=C(O)[C@@H]1C[C@@H](O)CN1

Test: 8-day repeat-dose study, tolerability (blood chemistry, hematology, adverse events) in tumor-bearing dogs
Assay type: in vivo, dog
Conditions: for ALP / ALT / AST / Albumin / BUN / Bicarbonate / Bilirubin Conj. / Calcium / Chloride / Cholesterol / Creatine Kinase / GGT / Globulin / Glucose / HCT / HGB / MCH / MCV / Phosphorous / Platelets / Potassium / RBC / Sodium / Total Bilirubin / Total Protein / WBC: Post: 30 min after last injection on day 8, 10 mg s.c. once daily for 8 days
Excerpt: Previous studies utilizing repeat dosing in mice and rats established safe starting doses for studies using dogs. Female dogs with one or more spontaneously occurring mammary gland tumors greater than approximately 2 cm in maximum diameter, presenting to the Cancer Institute at the Schwarzman Animal Medical Center in New York City, were screened for inclusion in the study. […] All dogs underwent complete clinical staging, consisting of a complete blood count with cell differential, clinical chemistry, and urinalysis. Dogs were administered AFPep 10 mg s.c. once daily for 8 consecutive days. Tumors were biopsied prior to the administration of AFPep and were surgically removed on day 8 after the last injection of AFPep. Blood levels of AFPep were measured before and 30 minutes following its administration on the first day and eighth day of treatment with AFPep. Histopathology was obtained on all mammary gland tumors. Tolerability was assessed using the Veterinary Cooperative Oncology Group Common Terminology Criteria for Adverse Events. Blood chemistry and hematology analyses were performed at IDEXX Laboratories Inc. (Westbrook, ME, USA), using the Sysmex XT and Beckman AU 5800 systems. This study was approved by the Schwarzman Animal Medical Center IACUC and informed consent was obtained in writing from all owners.

CC(C)[C@@H]1NC(=O)[C@@H]2C[C@@H](O)CN2C(=O)[C@H]([C@@H](C)O)NC(=O)[C@H](CCCCN)NC(=O)[C@H](CCC(=O)O)NC(=O)[C@H](CC(N)=O)NC(=O)CNC(=O)[C@@H]2C[C@@H](O)CN2C(=O)[C@H](CC(N)=O)NC1=O [AFPep] (cyclo(EKT[Hyp]VN[Hyp]GN))
AFPep-related adverse events (VCOG-CTCAE) (10 mg s.c. once a day for 8 days, 6 dogs with mammary cancer): grade-1 injection site reactions in three out of six dogs | complete blood counts with cell differential, clinical chemistry, and urinalysis (30 minutes before first exposure vs 30 minutes after the 8-day administration, 10 mg s.c. once daily, 6 dogs): unchanged | ALP (Dog 1): 261 U/L | ALT (Dog 1): 35 U/L | AST (Dog 1): 14 U/L | Albumin (Dog 1): 3 g/dL | BUN (Dog 1): 27 mg/dL | Bicarbonate (Dog 1): 21 mmol/L | Bilirubin Conj. (Dog 1): 0.1 mg/dL | Calcium (Dog 1): 10 mg/dL | Chloride (Dog 1): 111 mmol/L | Cholesterol (Dog 1): 277 mg/dL | Creatine Kinase (Dog 1): 120 U/L | GGT (Dog 1): 4 U/L | Globulin (Dog 1): 3 g/dL | Glucose (Dog 1): 107 mg/dL | HCT (Dog 1): 39% | HGB (Dog 1): 13 g/dL | MCH (Dog 1): 24 pg | MCV (Dog 1): 68 fL | Phosphorous (Dog 1): 4 mg/dL | Platelets (Dog 1): 438 10^3/µL | Potassium (Dog 1): 4 mmol/L | RBC (Dog 1): 6 10^6/µL | Sodium (Dog 1): 145 mmol/L | Total Bilirubin (Dog 1): 0.1 mg/dL | Total Protein (Dog 1): 6 g/dL | WBC (Dog 1): 18 10^3/µL | ALP (Dog 2): 115 U/L | ALT (Dog 2): 14 U/L | AST (Dog 2): 20 U/L | Albumin (Dog 2): 4 g/dL | BUN (Dog 2): 14 mg/dL | Bicarbonate (Dog 2): 23 mmol/L | Bilirubin Conj. (Dog 2): 0.1 mg/dL | Calcium (Dog 2): 11 mg/dL | Chloride (Dog 2): 108 mmol/L | Creatine Kinase (Dog 2): 225 U/L | GGT (Dog 2): 6 U/L | Globulin (Dog 2): 4 g/dL | Glucose (Dog 2): 178 mg/dL | HCT (Dog 2): 46% | HGB (Dog 2): 17 g/dL | MCH (Dog 2): 23 pg | MCV (Dog 2): 65 fL | Phosphorous (Dog 2): 3 mg/dL | Platelets (Dog 2): 700 10^3/µL | Potassium (Dog 2): 5 mmol/L | RBC (Dog 2): 7 10^6/µL | Sodium (Dog 2): 146 mmol/L | Total Bilirubin (Dog 2): 0.1 mg/dL | Total Protein (Dog 2): 8 g/dL | WBC (Dog 2): 7 10^3/µL | ALP (Dog 3): 178 U/L | ALT (Dog 3): 39 U/L | AST (Dog 3): 15 U/L | Albumin (Dog 3): 4 g/dL | BUN (Dog 3): 14 mg/dL | Bicarbonate (Dog 3): 23 mmol/L | Bilirubin Conj. (Dog 3): 0.1 mg/dL | Calcium (Dog 3): 9 mg/dL | Chloride (Dog 3): 108 mmol/L | Cholesterol (Dog 3): 273 mg/dL | Creatine Kinase (Dog 3): 115 U/L | GGT (Dog 3): 4 U/L | Globulin (Dog 3): 3 g/dL | Glucose (Dog 3): 107 mg/dL | HCT (Dog 3): 46% | HGB (Dog 3): 17 g/dL | MCH (Dog 3): 23 pg | MCV (Dog 3): 64 fL | Phosphorous (Dog 3): 4 mg/dL | Platelets (Dog 3): 558 10^3/µL | Potassium (Dog 3): 5 mmol/L | RBC (Dog 3): 7 10^6/µL | Sodium (Dog 3): 145 mmol/L | Total Bilirubin (Dog 3): 0.1 mg/dL | Total Protein (Dog 3): 7 g/dL | WBC (Dog 3): 6 10^3/µL | ALP (Dog 4): 148 U/L | ALT (Dog 4): 60 U/L | AST (Dog 4): 23 U/L | Albumin (Dog 4): 3 g/dL | BUN (Dog 4): 24 mg/dL | Bicarbonate (Dog 4): 17 mmol/L | Bilirubin Conj. (Dog 4): 0.1 mg/dL | Calcium (Dog 4): 10 mg/dL | Chloride (Dog 4): 114 mmol/L | Cholesterol (Dog 4): 451 mg/dL | Creatine Kinase (Dog 4): 169 U/L | GGT (Dog 4): 6 U/L | Globulin (Dog 4): 4 g/dL | Glucose (Dog 4): 92 mg/dL | HCT (Dog 4): 51% | HGB (Dog 4): 18 g/dL | MCH (Dog 4): 23 pg | MCV (Dog 4): 62 fL | Phosphorous (Dog 4): 3 mg/dL | Platelets (Dog 4): 485 10^3/µL | Potassium (Dog 4): 4.4 mmol/L | RBC (Dog 4): 8 10^6/µL | Sodium (Dog 4): 147 mmol/L | Total Bilirubin (Dog 4): 0.1 mg/dL | Total Protein (Dog 4): 6 g/dL | WBC (Dog 4): 13 10^3/µL | ALP (Dog 5): 15 U/L | ALT (Dog 5): 29 U/L | AST (Dog 5): 26 U/L | Albumin (Dog 5): 4 g/dL | BUN (Dog 5): 15 mg/dL | Bicarbonate (Dog 5): 21 mmol/L | Bilirubin Conj. (Dog 5): 0.1 mg/dL | Calcium (Dog 5): 10 mg/dL | Chloride (Dog 5): 110 mmol/L | Cholesterol (Dog 5): 373 mg/dL | Creatine Kinase (Dog 5): 138 U/L | GGT (Dog 5): 18 U/L | Globulin (Dog 5): 3 g/dL | Glucose (Dog 5): 88 mg/dL | HCT (Dog 5): 48% | HGB (Dog 5): 18 g/dL | MCH (Dog 5): 25 pg | MCV (Dog 5): 67 fL | Phosphorous (Dog 5): 3 mg/dL | Platelets (Dog 5): 462 10^3/µL | Potassium (Dog 5): 5 mmol/L | RBC (Dog 5): 7 10^6/µL | Sodium (Dog 5): 143 mmol/L | Total Bilirubin (Dog 5): 0.1 mg/dL | Total Protein (Dog 5): 7 g/dL | WBC (Dog 5): 7 10^3/µL | ALP (Dog 6): 19 U/L | ALT (Dog 6): 41 U/L | AST (Dog 6): 18 U/L | Albumin (Dog 6): 3 g/dL | BUN (Dog 6): 30 mg/dL | Bicarbonate (Dog 6): 21 mmol/L | Bilirubin Conj. (Dog 6): 0.1 mg/dL | Calcium (Dog 6): 10 mg/dL | Chloride (Dog 6): 114 mmol/L | Cholesterol (Dog 6): 198 mg/dL | Creatine Kinase (Dog 6): 80 U/L | GGT (Dog 6): 5 U/L | Globulin (Dog 6): 3 g/dL | Glucose (Dog 6): 81 mg/dL | HCT (Dog 6): 43% | HGB (Dog 6): 15 g/dL | MCH (Dog 6): 25 pg | MCV (Dog 6): 74 fL | Phosphorous (Dog 6): 6 mg/dL | Platelets (Dog 6): 519 10^3/µL | Potassium (Dog 6): 4 mmol/L | RBC (Dog 6): 6 10^6/µL | Sodium (Dog 6): 143 mmol/L | Total Bilirubin (Dog 6): 0.1 mg/dL | Total Protein (Dog 6): 6 g/dL | WBC (Dog 6): 13 10^3/µL
